One experiment deals with T1, hAC (Homo sapiens, UniProt Q13510).
T1 sequence (Q13510 22-395): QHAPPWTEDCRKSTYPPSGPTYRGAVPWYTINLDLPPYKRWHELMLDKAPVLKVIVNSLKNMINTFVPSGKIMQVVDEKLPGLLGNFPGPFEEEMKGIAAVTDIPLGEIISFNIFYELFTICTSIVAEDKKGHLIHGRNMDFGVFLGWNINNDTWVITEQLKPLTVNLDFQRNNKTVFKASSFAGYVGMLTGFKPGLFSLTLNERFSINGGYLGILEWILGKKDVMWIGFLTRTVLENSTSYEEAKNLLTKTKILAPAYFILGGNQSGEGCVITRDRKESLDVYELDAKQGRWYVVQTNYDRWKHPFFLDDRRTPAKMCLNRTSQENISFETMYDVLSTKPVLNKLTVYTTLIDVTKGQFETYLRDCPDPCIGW
In words: hAC LC/MS-based activity assay in SH-SY5Y cells. It counts as cell-based. On the set-up: host or cells: SH-SY5Y human neuroblastoma cells. To be noted: 1, 2.5, 5, 10 μM for 3 h; 10 μM for 1, 3, 6 h. As to the method:
SH-SY5Y cells were purchased from Sigma Aldrich (Italy) and cultured in DMEM containing 10% FBS at 37 °C and 5% CO2. Drugs were dissolved in DMSO (10 mM) and diluted in cell culture medium with reduced serum (1%) for cell treatments.
hAC activity measurement was performed as previously described.[59],[61] Total lysates from cells were diluted in assay buffer (100 mM sodium phosphate, 0.1% Nonidet P-40, 150 mM NaCl, 3 mM DTT, 100 mM sodium citrate, pH 4.5). Reactions were started by the addition of 50 μM N-lauroyl ceramide (Nu-Chek Prep, Elysian, MN) and carried out for 1 h at 37 °C. Reactions were stopped by the addition of a mixture of CHCl3/MeOH (2:1) spike with 11-lauroleic acid (1.0 nmol, NuChek Prep). The organic phases were collected, dried under N2, and analyzed by UPLC/MS (Acquity, Waters) in the negative-ion mode monitoring the reaction product (lauric acid, m/z: 199) using 11-lauroleic acid as the internal standard. Lipids were eluted on an Acquity UPLC BEH C18 column (50 mm length, 2.1 mm ID, 1.7 μm pore size, Waters) column at 0.5 mL/min for 1.5 min with a gradient of CH3CN and H2O, both containing 0.25% AcOH and 5 mM NH4OAc (70–100% CH3CN in 0.5 min, 100% CH3CN for 0.5 min, 70% CH3CN for 0.4 min). The column temperature was 40 °C. […] The [M – H]^− ion was monitored in the selected-ion monitoring mode (m/z values: lauric acid 199, 11-lauroleic acid 197.35). […]

Experiment [1] concerns the target T2, human N-acylethanolamine acid amidase (hNAAA) (Homo sapiens, UniProt Q02083).
T2 construct: expressed in transfected cells; lysosome-enriched lysate
T2 sequence (Q02083 29-359): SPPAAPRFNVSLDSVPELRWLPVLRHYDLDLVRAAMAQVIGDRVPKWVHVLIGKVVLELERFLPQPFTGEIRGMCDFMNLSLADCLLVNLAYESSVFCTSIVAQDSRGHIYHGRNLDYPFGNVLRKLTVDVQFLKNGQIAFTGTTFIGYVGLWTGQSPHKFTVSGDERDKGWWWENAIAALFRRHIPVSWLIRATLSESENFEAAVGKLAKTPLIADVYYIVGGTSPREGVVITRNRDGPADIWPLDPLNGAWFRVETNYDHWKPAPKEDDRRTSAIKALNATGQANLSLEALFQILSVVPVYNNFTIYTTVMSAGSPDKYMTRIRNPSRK
In words: Fluorogenic hNAAA assay. Type of experiment: biochemical. To be noted: at up to 125 μM. As to the method: HEK-293 cells stably transfected with the hNAAA coding sequence cloned from a human spleen cDNA library (catalog no. 639124, Clontech, Mountain View, CA, USA) were used as the enzyme source. Cells were grown in DMEM containing 10% FBS, 1% glutamine, 1 mM sodium pyruvate, and 500 μg/mL G418. Cells were harvested and pellets were stored at −80 °C until lysosomal-enriched lysate preparation. Cells were suspended in 20 mM Tris HCl (pH 7.4) with 0.32 M sucrose, sonicated, and centrifuged at 800 × g for 30 min at 4 °C. Supernatants were then ultracentrifuged at 12 000 × g for 30 min at 4 °C. Pellets were re-suspended in PBS buffer (pH 7.4) and subjected to three freeze–thaw cycles at −80 °C. The suspension was finally ultracentrifuged at 105 000 × g for 1 h at 4 °C, supernatants were collected, protein concentration was measured, and samples aliquoted and stored at −80 °C until use.
The assay was run in 96-well microplates (Black OptiPlate-96 F; PerkinElmer, Massachusetts, USA) in a total reaction volume of 200 μL. hNAAA protein preparation (4.0 μg) was pre-incubated for 30 min with various concentrations of test compounds or vehicle control (DMSO 5%) in 100 mM citrate/phosphate buffer (pH 4.5) containing 3.0 mM dithiothreitol (DTT), 0.1% NP40 0.1%, 0.05% bovine serum albumin, and 150 mM NaCl. […]

As to `CCCCCNC(=O)n1cc(-c2ccc(F)cc2C2CCN(C)CC2)oc1=O` [Compound 32b, 5-[4-Fluoro-2-(1-methyl-4-piperidyl)phenyl]-2-oxo-N-pentyl-oxazole-3-carboxamide], the “hAC activity in SH-SY5Y cells” value at hAC was “time-dependent reduction”. The “effect against hNAAA” value in experiment [1] is “no effect”.

These data come from PMC7770833, “Design, Synthesis, and Biological Evaluation of a Series of Oxazolone Carboxamides as a Novel Class of Acid Ceramidase Inhibitors” (Journal of Medicinal Chemistry, 2020).
